Converted amounts (≈) assume the structure as drawn.
What was measured:
[1] = Terminal half life in Sprague-Dawley rat at 10 mg/kg, po measured upto 12 hrs by LC-MS/MS analysis; type: ADME, organism-based; settings: in vivo, read-out: beta t1/2 (converted)
[2] = tested on: Human immunodeficiency virus 1; assay: Antiviral activity against HIV-1 IIIB infected in human MT4 cells assessed as protection against virus-induced cytotoxicity incubated for 5 days by MTT assay; type: functional, organism-based; settings: Human immunodeficiency virus 1, IIIB, MT4, 120 h
[3] = tested on: Human immunodeficiency virus 1; assay: Antiviral activity against HIV-1 IIIB harboring K103N/Y181C double mutant infected in human MT4 cells assessed as protection against virus-induced cytotoxicity incubated for 5 days by MTT assay; type: functional, organism-based; settings: Human immunodeficiency virus 1, IIIB, MT4, 120 h
[4] = Cytotoxicity against human MT4 cells assessed as reduction in cell viability incubated for 5 days by MTT assay; type: toxicity, cell-based; settings: time 5 day
[5] = Selectivity index, ratio of CC50 for human MT4 cells to EC50 for antiviral activity against HIV-1 IIIB infected in human MT4 cells; type: toxicity, cell-based; settings: MT4 cells (uninfected and infected with HIV-1 IIIB), read-out: Ratio CC50/EC50
[6] = Selectivity index, ratio of CC50 for human MT4 cells to EC50 for antiviral activity against HIV-1 IIIB harboring K103N/Y181C double mutant infected in human MT4 cells; type: toxicity, cell-based; settings: read-out: Ratio CC50/EC50
[7] = tested on: Human immunodeficiency virus 1; assay: Antiviral activity against HIV1 L1001 infected in human MT4 cells assessed as protection against virus-induced cytopathic effect incubated for 5 days by MTT assay; type: functional, organism-based; settings: Human immunodeficiency virus 1, L1001, MT4, 120 h
[8] = tested on: Human immunodeficiency virus 1; assay: Antiviral activity against HIV-1 harboring reverse transcriptase K103N mutant infected in human MT4 cells assessed as protection against virus-induced cytopathic effect incubated for 5 days by MTT assay; settings: Human immunodeficiency virus 1, MT4, 120 h
[9] = tested on: Human immunodeficiency virus 1; assay: Antiviral activity against HIV-1 harboring reverse transcriptase Y181C mutant infected in human MT4 cells assessed as protection against virus-induced cytopathic effect incubated for 5 days by MTT assay; settings: Human immunodeficiency virus 1, MT4, 120 h
[10] = tested on: Human immunodeficiency virus 1; assay: Antiviral activity against HIV-1 harboring reverse transcriptase Y188L mutant infected in human MT4 cells assessed as protection against virus-induced cytopathic effect incubated for 5 days by MTT assay; settings: Human immunodeficiency virus 1, MT4, 120 h
[11] = tested on: Human immunodeficiency virus 1; assay: Antiviral activity against HIV-1 harboring reverse transcriptase E138K mutant infected in human MT4 cells assessed as protection against virus-induced cytopathic effect incubated for 5 days by MTT assay; settings: Human immunodeficiency virus 1, MT4, 120 h
[12] = tested on: Human immunodeficiency virus 1; assay: Antiviral activity against HIV-1 harboring reverse transcriptase F227L/V106A mutant infected in human MT4 cells assessed as protection against virus-induced cytopathic effect incubated for 5 days by MTT assay; settings: Human immunodeficiency virus 1, MT4, 120 h
[13] = molecular target: Human immunodeficiency virus type 1 reverse transcriptase (Human immunodeficiency virus 1, UniProt Q72547); assay: Inhibition of wild type HIV-1 reverse transcriptase using biotin-labelled dNTPs as substrate incubated for 2 hrs by ELISA
[14] = Terminal half life in Sprague-Dawley rat at 2 mg/kg, iv measured upto 10 hrs by LC-MS/MS analysis; type: ADME, organism-based; settings: in vivo, read-out: beta t1/2 (converted)
[15] = Tmax in Sprague-Dawley rat at 2 mg/kg, iv measured upto 10 hrs by LC-MS/MS analysis; type: ADME, organism-based; settings: in vivo
[16] = Tmax in Sprague-Dawley rat at 10 mg/kg, po measured upto 12 hrs by LC-MS/MS analysis; type: ADME, organism-based; settings: in vivo
[17] = Cmax in Sprague-Dawley rat at 2 mg/kg, iv measured upto 10 hrs by LC-MS/MS analysis; type: ADME, organism-based; set-up: route intravenous, dose 2 mg/kg, time <=10; settings: in vivo
[18] = Cmax in Sprague-Dawley rat at 10 mg/kg, po measured upto 12 hrs by LC-MS/MS analysis; type: ADME, organism-based; set-up: route oral, dose 10 mg/kg, time <=12; settings: in vivo
[19] = AUC(0 to t) in Sprague-Dawley rat at 2 mg/kg, iv measured upto 10 hrs by LC-MS/MS analysis; type: ADME, organism-based; set-up: route intravenous, dose 2 mg/kg, time <=10; settings: in vivo
[20] = AUC(0 to t) in Sprague-Dawley rat at 10 mg/kg, po measured upto 12 hrs by LC-MS/MS analysis; type: ADME, organism-based; set-up: route oral, dose 10 mg/kg, time <=12; settings: in vivo
[21] = AUC(0 to infinity) in Sprague-Dawley rat at 2 mg/kg, iv measured upto 10 hrs by LC-MS/MS analysis; type: ADME, organism-based; set-up: route intravenous, dose 2 mg/kg, time <=10; settings: in vivo
[22] = AUC(0 to infinity) in Sprague-Dawley rat at 10 mg/kg, po measured upto 12 hrs by LC-MS/MS analysis; type: ADME, organism-based; set-up: route oral, dose 10 mg/kg, time <=12; settings: in vivo
[23] = Clearance in Sprague-Dawley rat at 2 mg/kg, iv measured upto 10 hrs by LC-MS/MS analysis; type: ADME, organism-based; settings: in vivo
[24] = Oral bioavailability in Sprague-Dawley rat at 10 mg/kg measured upto 12 hrs by LC-MS/MS analysis; type: ADME, organism-based; settings: in vivo
[25] = Aqueous solubility of the compound at pH 7.4 by HPLC analysis; type: physicochemical; settings: buffer
[26] = Aqueous solubility of the compound at pH 7.0 by HPLC analysis; type: physicochemical; settings: buffer
[27] = Aqueous solubility of the compound at pH 2.0 by HPLC analysis; type: physicochemical; settings: buffer
[28] = Acute toxicity in Kunming mouse assessed as change in body weight at 2000 mg/kg, po measured for 7 days; type: organism-based; settings: in vivo, time 7 day
[29] = tested on: Human immunodeficiency virus 1; assay: Potency index, ratio of rilpivirine EC50 to test compound EC50 for antiviral activity against HIV-1 harboring reverse transcriptase F227L/V106A mutant infected in human MT4 cells assessed as protection against virus-induced cytopathic effect incubated for 5 days by MTT assay; type: functional; settings: time 5 day
[30] = tested on: Human immunodeficiency virus 1; assay: Potency index, ratio of etravirine EC50 to test compound EC50 for antiviral activity against HIV-1 harboring reverse transcriptase F227L/V106A mutant infected in human MT4 cells assessed as protection against virus-induced cytopathic effect incubated for 5 days by MTT assay; type: functional; settings: time 5 day

`Cc1cc(/C=C/C#N)cc(C)c1Oc1nc(NC2CCN(c3ccc(NS(C)(=O)=O)cc3)CC2)nc2c1COC2` showed a half-life [1] of 1.47 h, an EC50 [2] of 6.17 nM and an EC50 [3] of 27.9 nM. For the same molecule, the CC50 at 120 h [4] was 38800 nM, the selectivity ratio [5] was 6290 and the selectivity ratio [6] was 1390. It also gave an EC50 [7] of 12.4 nM, an EC50 [8] of 6.91 nM and an EC50 [9] of 8.91 nM. For the same molecule, the EC50 [10] was 28.3 nM, the EC50 [11] was 7.66 nM and the EC50 [12] was 5.79 nM. It also gave an IC50 [13] of 150 nM, a half-life [14] of 1.11 h and a Tmax [15] of 1.98 min. It also gave a Tmax [16] of 1 h, a Cmax [17] of 756 ng/mL and a Cmax [18] of 307 ng/mL. The AUC(0-t) at 10 h [19] was 903 ng·h/mL, the AUC(0-t) at 12 h [20] was 727 ng·h/mL and the AUC(0-inf) [21] was 908 ng·h/mL. The AUC(0-inf) [22] was 753 ng·h/mL, the clearance [23] was 36.7 mL/min/kg and the bioavailability [24] was 16.6%. It also gave a solubility [25] of 2.1 µg/mL (≈ 3.75 µM), a solubility [26] of 10.1 µg/mL (≈ 18 µM) and a solubility [27] of 124 µg/mL (≈ 221 µM). The Activity [28] was “Non-Toxic”, the “Ratio EC50” value [29] was 14 and the “Ratio EC50” value [30] was 3.6.

Reference: ChEMBL document CHEMBL5038655, “Development of Novel Dihydrofuro[3,4-d]pyrimidine Derivatives as HIV-1 NNRTIs to Overcome the Highly Resistant Mutant Strains F227L/V106A and K103N/Y181C” (J Med Chem, 2022)
